Measurements published in PubChem BioAssay (NCI).
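Growth conditions: 96-well plates. Treatment: test compound, 48 hours, 5 concentrations. Analysis: linear interpolation between bracketing concentrations; unreached endpoints set to highest concentration. Abbreviation: GI50, concentration required for 50% inhibition of growth. TGI: total growth inhibition.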

Tests used:
Test in all cases: DTP human tumour cell line panel, 48 h
[1] = test system: HCC-2998 colon
[2] = test system: HOP-92 NSCLC
[3] = test system: IGROV1 ovarian
[4] = test system: MDA-MB-435
[5] = test system: NCI-H522 lung
[6] = test system: OVCAR-3 ovarian
[7] = test system: OVCAR-8 ovarian
[8] = test system: SF-268 CNS
[9] = test system: TK-10 renal
[10] = test system: SK-OV-3 ovarian

## Cc1cc(C)c(CNC(=O)c2cc(Cl)c3c(c2C)O[C@@](C)(C2CCC(N(C)C)CC2)O3)c(=O)[nH]1 (stereo not given in full)
[1]
  GI50: > 100 µM
  TGI: > 100 µM
[2]
  GI50: 18.4 µM
  TGI: > 100 µM
[3]
  GI50: 70.5 µM
  TGI: > 100 µM
[4]
  GI50: 58 µM
  TGI: > 100 µM
[5]
  GI50: > 100 µM
  TGI: > 100 µM
[6]
  GI50: > 100 µM
  TGI: > 100 µM
[7]
  GI50: > 100 µM
  TGI: > 100 µM
[8]
  GI50: 60.7 µM
  TGI: > 100 µM
[9]
  GI50: > 100 µM
  TGI: > 100 µM

## COc1ccc2c(c1)c(-c1nc(-c3cn(C)c4ncccc34)cs1)cn2CCCCN1CCCCC1
[2]
  GI50: 1.38 µM
  TGI: 2.76 µM
[4]
  GI50: 1.66 µM
  TGI: 3.04 µM
[6]
  GI50: 1.7 µM
  TGI: 3.15 µM
[10]
  GI50: 1.71 µM
  TGI: 3.15 µM
[9]
  GI50: 1.53 µM
  TGI: 2.95 µM

## N=C(N)c1ccc(-c2ccc(-c3cccs3)s2)cc1F
[1]
  GI50: 1.29 µM
  TGI: 2.93 µM
[2]
  GI50: 0.576 µM
  TGI: 2.21 µM
[3]
  GI50: 2.28 µM
  TGI: 4.74 µM
[4]
  GI50: 1.13 µM
  TGI: 2.37 µM
[5]
  GI50: 1.94 µM
  TGI: 3.88 µM
[6]
  GI50: 1.47 µM
  TGI: 3.09 µM
[7]
  GI50: 2.04 µM
  TGI: 5.19 µM
[8]
  GI50: 1.65 µM
  TGI: 3.37 µM
[9]
  GI50: 1.61 µM
  TGI: 3.03 µM

## CC1(C)N=C(N)N=C(N)N1c1cccc(CC(=O)Nc2ccccc2)c1
[1]
  GI50: 24 µM
  TGI: > 100 µM
[3]
  GI50: 8.48 µM
  TGI: > 100 µM
[4]
  GI50: 4.38 µM
  TGI: > 100 µM
[5]
  GI50: 47.5 µM
  TGI: > 100 µM
[6]
  GI50: 32.1 µM
  TGI: > 100 µM
[7]
  GI50: 76.8 µM
  TGI: > 100 µM
[8]
  GI50: 1.35 µM
  TGI: > 100 µM
[10]
  GI50: > 100 µM
  TGI: > 100 µM
[9]
  GI50: > 100 µM
  TGI: > 100 µM

## CCOc1ccc(/C=C/C(=O)c2sc(NNC(C)=O)nc2C)cc1
[1]
  TGI: > 100 µM
[2]
  TGI: > 100 µM
[3]
  TGI: > 100 µM
[5]
  TGI: > 100 µM
[6]
  TGI: > 100 µM
[7]
  TGI: > 100 µM
[8]
  TGI: > 100 µM
[10]
  TGI: > 100 µM
[9]
  TGI: > 100 µM

## Cc1cc2c(=O)cc(-c3ccncc3)oc2c(C(N)=O)c1C
[1]
  TGI: > 100 µM
[2]
  TGI: > 100 µM
[3]
  TGI: > 100 µM
[6]
  TGI: > 100 µM
[7]
  TGI: > 100 µM
[8]
  TGI: > 100 µM
[10]
  TGI: > 100 µM
[9]
  TGI: > 100 µM

## C=CN(C(=O)N1CCN(c2cc3c(cc2F)c(=O)c(C(=O)O)cn3C2CC2)CC1)c1nc(-c2ccc(C)cc2)cs1
[1]
  GI50: 3.85 µM
  TGI: > 100 µM
[2]
  GI50: 1.13 µM
  TGI: 4.39 µM
[3]
  GI50: 3.42 µM
  TGI: > 100 µM
[5]
  GI50: 2.27 µM
  TGI: 6.23 µM
[6]
  GI50: 3.83 µM
  TGI: > 100 µM
[7]
  GI50: 3.33 µM
  TGI: 19.9 µM
[8]
  GI50: 4.02 µM
  TGI: > 100 µM
[9]
  GI50: 3.89 µM
  TGI: > 100 µM

## N#Cc1cccc(C2SCc3nc4ccccc4n32)c1 (stereo not given)
[2]
  TGI: > 100 µM
[3]
  TGI: > 100 µM
[5]
  TGI: > 100 µM
[7]
  TGI: > 100 µM
[8]
  TGI: > 100 µM
[10]
  TGI: > 100 µM
[9]
  TGI: > 100 µM

## Cc1ccccc1C1N=C2Oc3ccccc3C=C2C(=O)N1 (stereo not given)
[1]
  GI50: 4.69 µM
  TGI: > 58.7 µM
[3]
  GI50: 9.85 µM
  TGI: > 100 µM
[4]
  GI50: 0.244 µM
  TGI: 0.824 µM
[5]
  GI50: 0.556 µM
  TGI: 3.32 µM
[6]
  GI50: 0.621 µM
  TGI: 2.69 µM
[7]
  GI50: 10.9 µM
  TGI: > 100 µM
[8]
  GI50: 9.2 µM
  TGI: > 100 µM
[10]
  GI50: 0.66 µM
  TGI: > 100 µM
[9]
  GI50: 8.06 µM
  TGI: > 100 µM

## CN(C)c1ccc(-c2cc(-c3cccc(NS(C)(=O)=O)c3)nc(N)c2C#N)cc1
[1]
  GI50: 0.0925 µM
  TGI: 0.866 µM
[3]
  GI50: 0.0624 µM
  TGI: 30.8 µM
[4]
  GI50: 0.0122 µM
  TGI: 0.035 µM
[5]
  GI50: < 0.013 µM
  TGI: 1.21 µM
[6]
  GI50: 0.0226 µM
  TGI: 0.0568 µM
[7]
  GI50: 0.0515 µM
  TGI: > 87.8 µM
[8]
  GI50: 0.0561 µM
  TGI: 28.9 µM
[10]
  GI50: 0.033 µM
  TGI: 1.74 µM
[9]
  GI50: 0.0735 µM
  TGI: > 55.2 µM

## CCc1cccc(CC)c1NC1=CC(=O)C(=O)c2ccccc21
[1]
  TGI: 28.8 µM
[2]
  TGI: 29.6 µM
[3]
  TGI: 28.9 µM
[5]
  TGI: 28.3 µM
[6]
  TGI: 8.39 µM
[7]
  TGI: 36.7 µM
[8]
  TGI: 72.5 µM
[10]
  TGI: 89.5 µM
[9]
  TGI: 56.3 µM

## O=c1[nH]c(-c2ccncc2)nc2sc3c(c12)CCCCCC3
[1]
  GI50: > 100 µM
  TGI: > 100 µM
[2]
  GI50: > 100 µM
  TGI: > 100 µM
[3]
  GI50: > 100 µM
  TGI: > 100 µM
[4]
  GI50: > 100 µM
  TGI: > 100 µM
[5]
  GI50: > 100 µM
  TGI: > 100 µM
[6]
  GI50: > 100 µM
  TGI: > 100 µM
[7]
  GI50: > 100 µM
  TGI: > 100 µM
[8]
  GI50: > 100 µM
  TGI: > 100 µM
[9]
  GI50: > 100 µM
  TGI: > 100 µM

## C#CC[C@]12CC(=O)CC[C@H]1CC1(C2)OCCO1
[1]
  TGI: > 100 µM
[3]
  TGI: > 100 µM
[5]
  TGI: > 100 µM
[6]
  TGI: > 100 µM
[7]
  TGI: > 100 µM
[8]
  TGI: > 100 µM
[10]
  TGI: > 100 µM
[9]
  TGI: > 100 µM

## Cc1nc2ccccc2c(=O)n1/N=C(\N=Nc1ccc(Cl)cc1)c1ccc(N(C)C)cc1
[3]
  TGI: > 100 µM
[5]
  TGI: > 100 µM
[7]
  TGI: > 100 µM
[8]
  TGI: > 100 µM
[10]
  TGI: > 100 µM
[9]
  TGI: > 100 µM

## C/C=C/C(C/C=C(\C)CO[Si](C)(C)C(C)(C)C)O[Si](C)(C)C(C)(C)C (stereo not given)
[1]
  TGI: > 100 µM
[3]
  TGI: > 100 µM
[4]
  TGI: > 100 µM
[5]
  TGI: > 100 µM
[6]
  TGI: > 100 µM
[7]
  TGI: > 100 µM
[8]
  TGI: > 100 µM
[10]
  TGI: > 100 µM
[9]
  TGI: > 100 µM

## CCC[CH2][Sn]1([CH2]CCC)[O]C(=O)c2cccnc2[S]1
[1]
  GI50: 2.39 µM
  TGI: 6.15 µM
[2]
  GI50: 3.37 µM
  TGI: 12.1 µM
[3]
  GI50: 11.2 µM
  TGI: 23.5 µM
[5]
  GI50: 0.348 µM
  TGI: 1.57 µM
[6]
  GI50: 3.49 µM
  TGI: 12.5 µM
[7]
  GI50: 4.04 µM
  TGI: 14.5 µM
[10]
  GI50: 16.9 µM
  TGI: 31.4 µM
[9]
  GI50: 3.71 µM
  TGI: 12.1 µM

## BrC(/C=N/Nc1nnc(-c2ccccc2)c(-c2ccccc2)n1)C(Br)c1ccccc1 (stereo not given)
[1]
  TGI: > 100 µM
[2]
  TGI: 64.5 µM
[3]
  TGI: > 100 µM
[5]
  TGI: 54.1 µM
[6]
  TGI: > 100 µM
[7]
  TGI: > 100 µM
[8]
  TGI: > 100 µM
[10]
  TGI: > 100 µM
[9]
  TGI: > 100 µM
